# In patent publication US8389568B2, “IDO inhibitors and methods of use thereof” (Lankenau Institute for Medical Research, priority 2007, dated 2013):
# Target: human IDO (Homo sapiens, UniProt P14902)
# Test: IDO inhibition enzyme assay (N-formylkynurenine/kynurenine formation read at 490 nm)
# Assay type: biochemical
# Details: not given
# Experimental: Compounds of the instant invention were analyzed for inhibition of human IDO. The assay was conducted according to a literature protocol, with ascorbic acid and methylene blue serving the role of reductant (Littlejohn et al. (2000) Protein Expression and Purification, 19:22-29; Sono et al. (1989) J. Biol. Chem., 264:1616-1622). […] The enzyme assay monitored for formation of N-formylkynurenine by hydrolyzing the formyl group and spectrophotometrically analyzing for the conjugated imine generated from kynurenine and 4-(dimethylamino) benzaldehyde.
# Specifically, the inhibition assays were performed in a 96-well microtiter plate as previously described with a small modification (Littlejohn et al. (2000) Prot. Expr. Purif., 19:22-29). Briefly, the reaction mixture contained 50 mM potassium phosphate buffer (pH 6.5), 40 mM ascorbic acid, 400 μg/ml catalase, 20 μM methylene blue and purified recombinant IDO(1) optimized based on its activity. The reaction mixture was added to the substrate, L-tryptophan (L-Trp), and the inhibitor. The L-Trp was serially diluted from 200 to 25 μM and the inhibitors were tested at two concentrations, 200 and 400 μM. The reaction was carried out at 37° C. for 60 minutes and stopped by adding 30% (w/v) trichloroacetic acid. The plate was heated at 65° C. for 15 minutes to convert formylkynurenine to kynurenine and then was spun at 6000 g for 5 minutes. Finally 100 μl supernatant from each well was transferred to a new 96 well plate and mixed with 2% (w/v) p-dimethylamino-benzaldehyde in acetic acid. The yellow color generated from the reaction with kynurenine was measured at 490 nm using a Synergy HT microtiter plate reader (Bio-Tek, Winooski, Vt.). The data was analyzed using Graph Pad Prism 4 software (Graph Pad Software Inc., San Diego, Calif.).
# human IDO, sequence (P14902 whole entry): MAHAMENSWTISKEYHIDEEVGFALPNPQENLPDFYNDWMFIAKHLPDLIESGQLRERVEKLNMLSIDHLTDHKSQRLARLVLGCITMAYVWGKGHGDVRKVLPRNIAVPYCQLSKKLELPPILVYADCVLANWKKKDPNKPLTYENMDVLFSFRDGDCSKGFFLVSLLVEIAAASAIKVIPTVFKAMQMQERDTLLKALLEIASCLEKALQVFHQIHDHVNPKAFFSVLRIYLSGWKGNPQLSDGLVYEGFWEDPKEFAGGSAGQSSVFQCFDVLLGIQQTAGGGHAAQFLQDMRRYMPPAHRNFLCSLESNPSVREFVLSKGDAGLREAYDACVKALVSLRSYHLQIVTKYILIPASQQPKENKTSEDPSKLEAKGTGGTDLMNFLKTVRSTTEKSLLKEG
row,SMILES,IC50
1,"CC1(C)C=CC2=C(O1)C(=O)c1ccccc1C2=O [Compound 8, 2,2-dimethyl-2H-benzo[g]chromene-5,10-dione]",155 nM

# Same assay, conditions: purified recombinant IDO(1); L-Trp substrate; ascorbic acid/methylene blue reductant, catalase; pH 6.5; 37° C. for 60 minutes; read-out: IC50
row,SMILES,IC50
1,"CCCCN[C@H]1C2=C(OC(C)(C)[C@@H]1O)C(=O)c1ccccc1C2=O (stereo in doubt) [Compound 20, 4-(butylamino)-3-hydroxy-2,2-dimethyl-3,4-dihydro-2H-benzo[g]chromene-5,10-dione]",70 nM
2,"C=CCN[C@H]1C2=C(OC(C)(C)[C@H]1O)C(=O)c1ccccc1C2=O (stereo in doubt) [Compound 17, 4-(allylamino)-3-hydroxy-2,2-dimethyl-3,4-dihydro-2H-benzo[g]chromene-5,10-dione]",183 nM
3,"CC1(C)C=CC2=C(O1)C(=O)c1cccc(O)c1C2=O [Compound 28, 6-hydroxy-2,2-dimethyl-2H-benzo[g]chromene-5,10-dione]",58 nM
4,"COC(=O)C1(C)C=CC2=C(O1)C(=O)c1ccccc1C2=O (centres unmarked) [Compound 29, methyl 2-methyl-5,10-dioxo-5,10-dihydro-2H-benzo[g]chromene-2-carboxylate]",161 nM
5,"CCCCN[C@H]1C2=C(OC(C)(C)[C@H]1O)C(=O)c1ccccc1C2=O (stereo in doubt) [Compound 19, 4-(butylamino)-3-hydroxy-2,2-dimethyl-3,4-dihydro-2H-benzo[g]chromene-5,10-dione]",160 nM

# Second part, the molecule after the results:
row,IC50,SMILES
1,1500 nM,"CC1(C)OC2=C(C(=O)c3ccccc3C2=O)[C@H](O)[C@@H]1O [Compound 12, (3S,4S)-3,4-dihydroxy-2,2-dimethyl-3,4-dihydro-2H benzo[g]chromene-5,10-dione]"
2,290 nM,CC1(C)OC2=C(C(=O)c3ccccc3C2=O)[C@@H](O)[C@@H]1Br (relative stereo) [Compound 27]
3,3300 nM,"CC1(C)OC2=C(C(=O)c3ccccc3C2=O)C2OC21 (centres unmarked) [Compound 14, 2,2-dimethyl-9a,9b-dihydro-1aH-benzo[g]oxireno[2,3-c]chromene-4,9(2H,3aH)-dione]"
4,3960 nM,"CO[C@H]1C2=C(OC(C)(C)[C@@H]1O)C(=O)c1ccccc1C2=O (stereo in doubt) [Compound 22, 3-hydroxy-4-methoxy-2,2-dimethyl-3,4-dihydro-2H-benzo[g]chromene-5,10-dione]"
5,976 nM,"CO[C@H]1C2=C(OC(C)(C)[C@H]1O)C(=O)c1ccccc1C2=O (stereo in doubt) [Compound 21, 3-hydroxy-4-methoxy-2,2-dimethyl-3,4-dihydro-2H-benzo[g]chromene-5,10-dione]"
